According to ChEMBL document CHEMBL1138586 (Bioorg Med Chem Lett, 2009):
Each block holds one compound with its values, some of them ahead of it.

Assays:
Coagulation factor X = Coagulation factor X (Homo sapiens, UniProt P00742); test: Inhibition of Factor 10a
[1] = Oral bioavailability in rat; assay type: ADME, organism-based; conditions: in vivo
[2] = Half life in rat; assay type: ADME, organism-based; conditions: in vivo
[3] = Metabolic stability in human liver S9 fraction at 1 uM by HPLC; assay type: ADME, subcellular
[4] = Metabolic stability in rat liver S9 fraction at 1 uM by HPLC; assay type: ADME, subcellular
[5] = Clearance in rat; assay type: ADME, organism-based; conditions: in vivo
[6] = Oral bioavailability in Sprague-Dawley rat at 6 mg/kg; assay type: ADME, organism-based; conditions: in vivo
[7] = Clearance in rat at 0.2 mg/kg, iv and 6 mg/kg, po; assay type: ADME, organism-based; conditions: in vivo
[8] = biological target: Vitamin K-dependent protein C (Homo sapiens, UniProt P04070); test: Inhibition of activated anticoagulant protein C
Sequence of Vitamin K-dependent protein C (P04070 43-197 limits assumed): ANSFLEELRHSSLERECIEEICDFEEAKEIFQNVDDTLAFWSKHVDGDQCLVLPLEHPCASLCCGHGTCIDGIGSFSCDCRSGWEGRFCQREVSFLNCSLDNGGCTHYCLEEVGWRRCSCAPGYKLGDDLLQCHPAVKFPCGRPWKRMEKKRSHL
Sequence of Vitamin K-dependent protein C (P04070 212-461 limits assumed): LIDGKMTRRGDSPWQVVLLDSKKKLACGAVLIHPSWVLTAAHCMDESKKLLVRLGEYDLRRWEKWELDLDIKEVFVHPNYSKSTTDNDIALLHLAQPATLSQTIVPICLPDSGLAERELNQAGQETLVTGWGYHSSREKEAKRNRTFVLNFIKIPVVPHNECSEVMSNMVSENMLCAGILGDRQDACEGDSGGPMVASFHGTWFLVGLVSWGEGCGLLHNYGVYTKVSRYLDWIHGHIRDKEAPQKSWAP

[9] = Inhibition of kallikrein
[10] = AUC in rat at 6 mg/kg, po; assay type: ADME, organism-based; set-up: dose 6 mg/kg, route oral; conditions: plasma
[11] = Volume of distribution in cynomolgus monkey at 0.1 mg/kg, iv and 1 mg/kg, po; assay type: ADME, organism-based, Macaca fascicularis; conditions: in vivo
[12] = biological target: T1, Voltage-gated inwardly rectifying potassium channel KCNH2 (Homo sapiens, UniProt Q12809)
T1 sequence (Q12809 whole entry): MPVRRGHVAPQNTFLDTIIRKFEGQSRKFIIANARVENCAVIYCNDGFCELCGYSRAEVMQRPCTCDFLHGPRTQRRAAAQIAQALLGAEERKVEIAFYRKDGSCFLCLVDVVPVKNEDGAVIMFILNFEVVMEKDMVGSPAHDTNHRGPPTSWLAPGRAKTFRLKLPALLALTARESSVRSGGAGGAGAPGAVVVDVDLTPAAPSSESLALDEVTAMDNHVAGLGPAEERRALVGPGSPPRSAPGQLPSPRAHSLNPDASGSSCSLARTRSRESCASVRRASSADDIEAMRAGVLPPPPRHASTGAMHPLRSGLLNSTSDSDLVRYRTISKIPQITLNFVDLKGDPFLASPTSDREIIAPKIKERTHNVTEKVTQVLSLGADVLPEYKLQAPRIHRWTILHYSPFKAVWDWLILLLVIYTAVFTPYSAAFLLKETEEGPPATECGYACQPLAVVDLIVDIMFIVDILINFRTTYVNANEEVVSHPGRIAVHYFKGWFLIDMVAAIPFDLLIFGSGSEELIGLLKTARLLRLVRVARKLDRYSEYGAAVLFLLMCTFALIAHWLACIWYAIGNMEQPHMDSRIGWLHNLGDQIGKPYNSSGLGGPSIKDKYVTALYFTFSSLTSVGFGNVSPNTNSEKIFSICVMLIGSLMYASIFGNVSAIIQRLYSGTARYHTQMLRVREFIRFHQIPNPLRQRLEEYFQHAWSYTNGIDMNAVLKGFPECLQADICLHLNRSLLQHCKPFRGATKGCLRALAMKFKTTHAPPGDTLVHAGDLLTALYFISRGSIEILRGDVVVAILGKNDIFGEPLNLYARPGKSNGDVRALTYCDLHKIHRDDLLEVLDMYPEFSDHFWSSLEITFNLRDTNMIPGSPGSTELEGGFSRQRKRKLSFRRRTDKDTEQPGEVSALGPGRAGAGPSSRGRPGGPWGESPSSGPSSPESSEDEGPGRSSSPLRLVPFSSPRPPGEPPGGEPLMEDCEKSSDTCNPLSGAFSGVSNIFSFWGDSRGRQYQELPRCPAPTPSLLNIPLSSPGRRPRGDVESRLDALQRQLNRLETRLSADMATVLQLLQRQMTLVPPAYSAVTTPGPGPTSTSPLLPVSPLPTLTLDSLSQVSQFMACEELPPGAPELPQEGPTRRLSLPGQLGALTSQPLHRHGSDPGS

[13] = AUC in cynomolgus monkey at 1 mg/kg, po; assay type: ADME, organism-based, Macaca fascicularis; set-up: dose 1 mg/kg, route oral; conditions: plasma
[14] = Volume of distribution in Beagle dog at 0.1 mg/kg, iv and 1 mg/kg, po; assay type: ADME, organism-based, Canis lupus familiaris; conditions: in vivo
[15] = Half life in rat at 0.2 mg/kg, iv and 6 mg/kg, po; assay type: ADME, organism-based; conditions: in vivo
[16] = Oral bioavailability in rat at 6 mg/kg; assay type: ADME, organism-based; conditions: in vivo
[17] = AUC in Beagle dog at 1 mg/kg, po; assay type: ADME, organism-based, Canis lupus familiaris; set-up: dose 1 mg/kg, route oral; conditions: plasma
[18] = Oral bioavailability in Beagle dog at 1 mg/kg; assay type: ADME, organism-based, Canis lupus familiaris; conditions: in vivo
[19] = Half life in cynomolgus monkey at 0.1 mg/kg, iv and 1 mg/kg, po; assay type: ADME, organism-based, Macaca fascicularis; conditions: in vivo
[20] = Inhibition of trypsin
[21] = Clearance in cynomolgus monkey at 0.1 mg/kg, iv and 1 mg/kg, po; assay type: ADME, organism-based, Macaca fascicularis; conditions: in vivo
[22] = Oral bioavailability in cynomolgus monkey at 1 mg/kg; assay type: ADME, organism-based, Macaca fascicularis; conditions: in vivo
Prothrombin = Prothrombin (Homo sapiens, UniProt P00734); test: Inhibition of thrombin
[23] = Volume of distribution in rat at 0.2 mg/kg, iv and 6 mg/kg, po; assay type: ADME, organism-based; conditions: in vivo
[24] = biological target: Tissue-type plasminogen activator (Homo sapiens, UniProt P00750); test: Inhibition of tissue plasminogen activator
Sequence of Tissue-type plasminogen activator (P00750 whole entry): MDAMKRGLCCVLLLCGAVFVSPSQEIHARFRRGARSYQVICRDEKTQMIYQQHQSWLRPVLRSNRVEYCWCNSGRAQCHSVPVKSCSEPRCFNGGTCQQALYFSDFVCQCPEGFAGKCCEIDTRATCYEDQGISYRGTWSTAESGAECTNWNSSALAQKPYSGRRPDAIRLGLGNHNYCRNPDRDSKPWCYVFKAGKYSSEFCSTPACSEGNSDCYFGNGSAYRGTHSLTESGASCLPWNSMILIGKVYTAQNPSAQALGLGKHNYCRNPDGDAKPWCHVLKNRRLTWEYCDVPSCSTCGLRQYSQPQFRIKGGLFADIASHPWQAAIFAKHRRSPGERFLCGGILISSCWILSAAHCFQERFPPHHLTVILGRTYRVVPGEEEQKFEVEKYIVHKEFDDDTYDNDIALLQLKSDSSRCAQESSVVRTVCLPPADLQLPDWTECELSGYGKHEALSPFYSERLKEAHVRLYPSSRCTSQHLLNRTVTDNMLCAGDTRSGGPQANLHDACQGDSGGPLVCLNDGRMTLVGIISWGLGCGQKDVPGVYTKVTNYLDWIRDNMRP

[25] = Fraction unbound in human plasma at 10 uM after 30 mins; assay type: ADME, cell-free
Plasminogen = Plasminogen (Homo sapiens, UniProt P00747); test: Inhibition of plasmin
Sequence of Plasminogen (P00747 97-580 limits assumed): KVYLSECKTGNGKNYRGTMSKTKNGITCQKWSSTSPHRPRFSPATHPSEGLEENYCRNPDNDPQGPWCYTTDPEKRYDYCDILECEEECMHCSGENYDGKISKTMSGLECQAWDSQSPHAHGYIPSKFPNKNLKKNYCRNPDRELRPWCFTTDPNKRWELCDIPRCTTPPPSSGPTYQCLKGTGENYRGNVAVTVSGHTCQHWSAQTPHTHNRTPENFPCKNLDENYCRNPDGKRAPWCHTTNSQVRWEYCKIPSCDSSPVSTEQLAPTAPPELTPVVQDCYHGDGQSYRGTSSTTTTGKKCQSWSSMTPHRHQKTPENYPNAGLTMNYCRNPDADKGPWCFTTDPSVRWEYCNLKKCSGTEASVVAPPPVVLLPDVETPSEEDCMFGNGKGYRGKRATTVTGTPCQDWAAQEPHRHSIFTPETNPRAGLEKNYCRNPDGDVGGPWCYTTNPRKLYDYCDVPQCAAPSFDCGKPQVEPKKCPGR
Sequence of Plasminogen (P00747 581-810 limits assumed): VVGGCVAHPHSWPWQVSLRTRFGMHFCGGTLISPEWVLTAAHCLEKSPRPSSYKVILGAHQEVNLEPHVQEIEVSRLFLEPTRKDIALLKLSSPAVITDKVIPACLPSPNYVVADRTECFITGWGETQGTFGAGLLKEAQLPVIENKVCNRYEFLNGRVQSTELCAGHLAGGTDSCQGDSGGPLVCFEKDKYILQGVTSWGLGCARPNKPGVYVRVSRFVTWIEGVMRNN

[26] = Half life in Beagle dog at 0.1 mg/kg, iv and 1 mg/kg, po; assay type: ADME, organism-based, Canis lupus familiaris; conditions: in vivo
[27] = Clearance in Beagle dog at 0.1 mg/kg, iv and 1 mg/kg, po; assay type: ADME, organism-based, Canis lupus familiaris; conditions: in vivo
[28] = biological target: T1, Voltage-gated inwardly rectifying potassium channel KCNH2; test: Inhibition of human ERG expressed in HEK293 cells by patch-clamp method; assay type: cell-based
[29] = Clearance in Beagle dog at 0.5 mg/kg, iv and 2.5 mg/kg, po; assay type: ADME, organism-based, Canis lupus familiaris; conditions: in vivo
[30] = Half life in rat at 1 mg/kg, iv and 5 mg/kg, po; assay type: ADME, organism-based; conditions: in vivo
[31] = Oral bioavailability in cynomolgus monkey at 7.5 mg/kg; assay type: ADME, organism-based, Macaca fascicularis; conditions: in vivo
[32] = Half life in Beagle dog at 0.5 mg/kg, iv and 2.5 mg/kg, po; assay type: ADME, organism-based, Canis lupus familiaris; conditions: in vivo
[33] = Volume of distribution in cynomolgus monkey at 0.75 mg/kg, iv and 7.5 mg/kg, po; assay type: ADME, organism-based, Macaca fascicularis; conditions: in vivo
[34] = Clearance in cynomolgus monkey at 0.75 mg/kg, iv and 7.5 mg/kg, po; assay type: ADME, organism-based, Macaca fascicularis; conditions: in vivo
[35] = Half life in cynomolgus monkey at 0.75 mg/kg, iv and 7.5 mg/kg, po; assay type: ADME, organism-based, Macaca fascicularis; conditions: in vivo
[36] = AUC in rat at 5 mg/kg, po; assay type: ADME, organism-based; set-up: dose 5 mg/kg, route oral; conditions: plasma
[37] = AUC in Beagle dog at 2.5 mg/kg, po; assay type: ADME, organism-based, Canis lupus familiaris; set-up: dose 2.5 mg/kg, route oral; conditions: plasma
[38] = Volume of distribution in Beagle dog at 0.5 mg/kg, iv and 2.5 mg/kg, po; assay type: ADME, organism-based, Canis lupus familiaris; conditions: in vivo
[39] = Volume of distribution in rat at 1 mg/kg, iv and 5 mg/kg, po; assay type: ADME, organism-based; conditions: in vivo
[40] = Clearance in rat at 1 mg/kg, iv and 5 mg/kg, po; assay type: ADME, organism-based; conditions: in vivo
[41] = Oral bioavailability in Beagle dog at 2.5 mg/kg; assay type: ADME, organism-based, Canis lupus familiaris; conditions: in vivo
[42] = Oral bioavailability in rat at 5 mg/kg; assay type: ADME, organism-based; conditions: in vivo
[43] = AUC in cynomolgus monkey at 7.5 mg/kg, po; assay type: ADME, organism-based, Macaca fascicularis; set-up: dose 7.5 mg/kg, route oral; conditions: plasma

Sequence of Coagulation factor X (P00742 41-179 limits assumed): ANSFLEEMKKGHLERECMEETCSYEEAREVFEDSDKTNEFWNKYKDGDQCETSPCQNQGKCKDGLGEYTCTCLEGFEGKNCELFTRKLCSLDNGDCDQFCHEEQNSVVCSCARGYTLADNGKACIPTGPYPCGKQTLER
Sequence of Coagulation factor X (P00742 235-488 limits assumed): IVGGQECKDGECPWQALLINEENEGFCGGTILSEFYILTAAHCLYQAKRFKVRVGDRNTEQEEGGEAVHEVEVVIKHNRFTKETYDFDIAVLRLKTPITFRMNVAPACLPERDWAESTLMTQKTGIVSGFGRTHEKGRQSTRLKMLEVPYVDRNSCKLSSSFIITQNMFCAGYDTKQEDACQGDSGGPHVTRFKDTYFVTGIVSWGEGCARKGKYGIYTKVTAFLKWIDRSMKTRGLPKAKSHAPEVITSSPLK

IC50 (Coagulation factor X): 0.6 nM | bioavailability [1]: 11.2%
SMILES: COc1cc(Cl)cc(C(=O)Nc2ccc(Cl)cn2)c1NC(=O)c1ccc(C(=N)N(C)C)cc1

half-life [2]: 6.3 h | IC50 (Coagulation factor X): 0.8 nM | half-life at 1 µM [3]: > 2 h | half-life at 1 µM [4]: > 2 h | clearance [5]: > 100 mL/min/kg
SMILES: C#Cc1ccc(NC(=O)c2cc(Cl)ccc2NC(=O)c2ccc(C(=N)N(C)C)cc2)nc1

IC50 (Coagulation factor X): 6 nM | bioavailability [1]: < 5%
SMILES: CN(C)C(=N)c1ccc(C(=O)Nc2ccc(OCC(=O)O)cc2C(=O)Nc2ccc(Cl)cn2)cc1

half-life [2]: 8.4 h | IC50 (Coagulation factor X): < 0.5 nM | clearance [5]: 74.8 mL/min/kg | bioavailability [1]: 27.9%
SMILES: C#Cc1ccc(NC(=O)c2ccc(C(=N)N(C)C)cc2)c(C(=O)Nc2ccc(Cl)cn2)c1

bioavailability [6]: 31%
SMILES: CN(C)C(=N)c1ccc(C(=O)Nc2ccccc2C(=O)Nc2ccc(Cl)cn2)cc1

IC50 (Coagulation factor X): 0.9 nM | bioavailability [1]: < 5%
SMILES: COc1ccc(NC(=O)c2ccc(C(=N)N(C)C)cc2N2CCC(C(=O)O)CC2)c(C(=O)Nc2ccc(Cl)cn2)c1

half-life [2]: 16.5 h | IC50 (Coagulation factor X): < 0.5 nM | half-life at 1 µM [3]: > 2 h | half-life at 1 µM [4]: > 2 h | clearance [5]: 77.1 mL/min/kg | bioavailability [1]: 26.7%
SMILES: CSc1ccc(NC(=O)c2ccc(C(=N)N(C)C)cc2)c(C(=O)Nc2ccc(Cl)cn2)c1

IC50 (Coagulation factor X): < 0.5 nM | bioavailability [1]: 21.3%
SMILES: CN(C)C(=N)c1ccc(C(=O)Nc2ccc(Cl)cc2C(=O)Nc2ccc(Cl)cn2)c(N2CCCCC2)c1

clearance [7]: 29.7 mL/min/kg | IC50 [8]: > 10000 nM | IC50 [9]: 510 nM | AUC [10]: 885 ng·h/mL | Vd [11]: 36.5 L/kg | AUC [13]: 512 ng·h/mL | Vd [14]: 45.7 L/kg | half-life [15]: 12.8 h | bioavailability [16]: 26.1% | AUC [17]: 320 ng·h/mL | bioavailability [18]: 64.9% | half-life [19]: 19.4 h | IC50 [20]: > 10000 nM | clearance [21]: 26.7 mL/min/kg | bioavailability [22]: 73% | IC50 (Prothrombin): > 10000 nM | Vd [23]: 26.1 L/kg | IC50 [24]: > 10000 nM | fraction unbound at 0.5 h, 10 µM [25]: 0.881 | IC50 (Plasminogen): > 10000 nM | half-life [26]: 15.3 h | clearance [27]: 34 mL/min/kg
SMILES: CN(C)C(=N)c1ccc(C(=O)Nc2ccc(Cl)cc2C(=O)Nc2ccc(Cl)cn2)cc1
Ki [12]: 110 nM | IC50 [28]: 330 nM

clearance [29]: 24.6 mL/min/kg | half-life [30]: 5.5 h | IC50 [9]: 7200 nM | bioavailability [31]: 77.6% | IC50 (Coagulation factor X): 0.7 nM | Ki (Coagulation factor X): 0.105 nM | half-life [32]: 7.9 h | Vd [33]: 16.3 L/kg | clearance [34]: 16.2 mL/min/kg | half-life [35]: 11.4 h | AUC [36]: 770 ng·h/mL | AUC [37]: 1500 ng·h/mL | fraction unbound at 0.5 h, 10 µM [25]: 0.634 | Vd [38]: 16.8 L/kg | Vd [39]: 26.5 L/kg | clearance [40]: 57.5 mL/min/kg | bioavailability [41]: 88.9% | bioavailability [42]: 48.6% | AUC [43]: 6170 ng·h/mL
SMILES: COc1ccc(NC(=O)c2ccc(C(=N)N(C)C)cc2F)c(C(=O)Nc2ccc(Cl)cn2)c1
Ki [12]: 2100 nM | IC50 [28]: 4200 nM

IC50 (Coagulation factor X): 2 nM | bioavailability [1]: 6.9%
SMILES: CN(C)C(=N)c1ccc(C(=O)Nc2ccc(Cl)cc2C(=O)Nc2ccc(Cl)cn2)c(N2CCCC2)c1

IC50 (Coagulation factor X): 0.9 nM
SMILES: CCN(C)C(=N)c1ccc(C(=O)Nc2ccc(Cl)cc2C(=O)Nc2ccc(Cl)cn2)cc1
